# Patent US12023335B2, “Method for treating pancreatic cancer” (PTC THERAPEUTICS, INC., priority 2018, dated 2024)
# Entries after “also recorded” stand apart in the source; their conditions may differ.
# Key:
# P-glycoprotein = molecular target: T1, P-glycoprotein (Homo sapiens, UniProt P08183); assay: P-glycoprotein substrate activity experiment (CC50 ratio MDCK-P-gp vs MDCK-WT); assay type: in vitro ADME; details: 72 hours, CellTiter-Glo (FIG. 4b)
# T1 construct: host or cells: MDCKII-mdr1 (canine kidney MDCKII cells; MDCKII-wt as control)
# T1 sequence (P08183 whole entry): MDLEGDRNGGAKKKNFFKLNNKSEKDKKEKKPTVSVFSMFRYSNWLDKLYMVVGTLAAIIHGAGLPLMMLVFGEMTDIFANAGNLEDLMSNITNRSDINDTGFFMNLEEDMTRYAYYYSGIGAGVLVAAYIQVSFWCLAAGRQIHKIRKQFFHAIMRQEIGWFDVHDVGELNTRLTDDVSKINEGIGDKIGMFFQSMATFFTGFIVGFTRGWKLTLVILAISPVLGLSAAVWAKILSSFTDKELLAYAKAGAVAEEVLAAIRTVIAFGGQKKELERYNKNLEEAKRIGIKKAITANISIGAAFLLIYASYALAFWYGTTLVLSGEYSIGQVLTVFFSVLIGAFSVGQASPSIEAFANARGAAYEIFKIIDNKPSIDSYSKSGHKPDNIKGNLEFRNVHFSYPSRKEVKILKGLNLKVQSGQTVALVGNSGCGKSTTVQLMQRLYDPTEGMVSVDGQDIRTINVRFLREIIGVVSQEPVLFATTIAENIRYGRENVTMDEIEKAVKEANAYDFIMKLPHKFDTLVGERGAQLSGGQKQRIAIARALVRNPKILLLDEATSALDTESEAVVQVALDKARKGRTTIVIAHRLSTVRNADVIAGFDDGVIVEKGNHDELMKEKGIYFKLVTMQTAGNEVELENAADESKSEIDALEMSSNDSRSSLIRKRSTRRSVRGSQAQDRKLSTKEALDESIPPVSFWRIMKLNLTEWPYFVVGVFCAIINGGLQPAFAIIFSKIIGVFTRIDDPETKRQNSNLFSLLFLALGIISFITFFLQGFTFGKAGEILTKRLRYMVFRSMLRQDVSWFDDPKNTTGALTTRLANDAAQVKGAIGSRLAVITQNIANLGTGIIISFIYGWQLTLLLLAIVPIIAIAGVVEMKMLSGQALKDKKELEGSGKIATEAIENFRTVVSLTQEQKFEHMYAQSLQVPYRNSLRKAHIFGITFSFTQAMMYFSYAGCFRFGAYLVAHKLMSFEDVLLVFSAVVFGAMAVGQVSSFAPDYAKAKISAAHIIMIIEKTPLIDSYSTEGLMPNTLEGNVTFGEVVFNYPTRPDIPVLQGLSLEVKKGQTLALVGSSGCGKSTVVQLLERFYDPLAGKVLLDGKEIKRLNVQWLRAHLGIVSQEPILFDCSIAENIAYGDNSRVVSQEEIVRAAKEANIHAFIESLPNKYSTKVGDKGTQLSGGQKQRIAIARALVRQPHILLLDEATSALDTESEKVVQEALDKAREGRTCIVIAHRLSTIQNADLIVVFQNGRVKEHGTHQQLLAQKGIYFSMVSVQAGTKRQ
# Description: MDCKII-mdr1 and MDCKII-wt cells were purchased from the Netherlands Cancer Institute, NKI-AVL. The cells were cultivated in Dulbecco's modified essential medium (DMEM), supplemented with 10% FBS and 1% Penn-Strep, and used between passage 3-9. Cells were seeded at a density of 3×10^3 cells/well in 96-well tissue culture treated plates. After 4 hours to allow cells to attach, cells were treated with test compound in the presence or absence of the P-glycoprotein inhibitor Valspodar. The plates were incubated at 37° C., 5% CO2 for 72 hours and ATP was measured vialuminescence using CellTiter-Glo® reagent (Promega). (FIG. 4b)
# [1] = Compound 1 levels in plasma, quadriceps and PDA tissue of KPC mice; assay type: in vivo; details: 24 hours after single oral dose 10 mg/kg (FIG. 5a)
# Description: Blood plasma and tissue samples to be used for analysis were immediately frozen on dry ice and stored at −80° C. until analysis. Concentrations of Compound 1 in samples were quantified using high-performance liquid chromatography with tandem mass spectrometry (LC-MS/MS). Compound 1 and its internal standard (deuterated Compound 1) were recovered by protein precipitation extraction from samples.
# For the pharmacokinetic study that assessed plasma, quadriceps muscle, and tumor tissue following a single dose of Compound 1 the assay conditions were as follows (FIG. 5a):
# Plasma: A standard curve was made to cover concentrations between 0.002 ug/mL and 6.0 ug/mL. the LLOQ for Compound 1 (either version) in plasma was 0.001 μg/mL
# Quadriceps muscle: A standard curve was made to cover concentrations between 0.001 μg/g wet tissue and 3.0 μg/g wet tissue. The LLOQ for Compound 1 (either version) was 0.01 μg/g wet tissue.
# Tumor tissue: A standard curve was made to cover concentrations between 0.001 μg/g wet tissue and 3.0 μg/g wet tissue. The LLOQ for Compound 1 (either version) was 0.02 μg/g wet tissue.
# [2] = test system: J1002VEH and J1002TAM cells; assay: Viability and dose response of J1002VEH and J1002TAM cells (AlamarBlue); assay type: cell-based, mouse
# Description: For proliferation curves, cells were plated in 96-well plates (Corning, 3603) and allowed to seed overnight. Replicate plates were plated for each time point since viability measurements were an endpoint procedure. The following day, cells were treated with Compound at indicated concentrations and treated with DMSO at the highest used concentration (always below 0.003%). Cells were treated for 96 hours, and viability was determined every 24 hours using AlamarBlue reagent (BioRad, BUF012B). Briefly, 10 μL of AlamarBlue was added to each well (100 μL), mixed briefly, and allowed to incubate at 37° C. and 5% CO2 for 4 hours. Following incubation, fluorescence was measured on a Promega multimode microplate reader. For analysis, background levels were subtracted from raw results, which were then normalized to be represented as a fold change compared to DMSO-treated cells on Day 0. All assays were carried out in at least triplicate with 4-8 technical replicates per treatment group, per experiment. (FIG. 1a and FIG. 10b)
# For dose response curves, cells were plated in 96-well plates (Corning, 3603) and allowed to seed overnight. The following day, cells were treated with Compound 1. […] Cells were treated for 72 hours and then viability was determined using AlamarBlue reagent (BioRad, BUF012B). […] Following incubation, fluorescence was measured on a Promega multimode microplate reader. […]
structure (smiles),measurement,setting,value
"Cc1nc2ccc(F)cc2n1-c1nc(N)c(F)c(Nc2ccc(C(F)(F)F)cc2)n1 [Compound 1, 5-fluoro-2-(6-fluoro-2-methyl-1H-benzo[d]imidazol-1-yl)-N4-[4-(trifluoromethyl)phenyl]pyrimidine-4,6-diamine]",PGP substrate activity (ratio of CC50 values MDCK-P-gp vs MDCK-WT),P-glycoprotein,lack of P-glycoprotein (PGP) substrate activity; also recorded: do not function as a PGP substrate
same,distribution into PDA tumor tissue,[1],effective biodistribution into tumor tissues; also recorded: distributes into PDA tissues
same,relative viability of J1002VEH and J1002TAM cells,[2]; 0.1 μM or 1.0 μM over 96 hours (FIG. 10b),dose and time-dependent decrease in viability of cells dependent on BMI-1 protein expression
same,dose response in J1002VEH and J1002TAM cells,[2]; 72 hours (FIG. 10c),sub-M activity toward reduction in BMI-1 protein expression
